# Starred links: 1 amine or outer side, 2 acyl side, 3 side chain; linkers in the order of their positions; H or OH if unused. Non-standard residues stand in square brackets, D forms with d. Residues, ends and D or L forms follow the SMILES beside them. *: point of attachment. Ac6c = NC1(C(=O)O)CCCCC1; Morpholide = C1CN(*)CCO1; Nle = CCCC[C@H](N)C(=O)O; Cbz = O=C(OCc1ccccc1)*; CO = O=C([*:1])[*:2]
# How the values were obtained:
# Assay type in all cases: biochemical
# Cathepsin K = molecular target: T1, Cathepsin K (Oryctolagus cuniculus, UniProt P43236); assay: Measurement of cathepsin K inhibitory activity (fluorescent substrate Z-Gly-Pro-Arg-MCA); settings: pH 6.0, 37° C., 30 minutes
# T1 construct: Active enzyme was produced by expressing cathepsin K in the form of a proenzyme; made in house; host or cells: Sf21 insect cells (baculovirus expression system)
# T1 sequence (P43236 115-329): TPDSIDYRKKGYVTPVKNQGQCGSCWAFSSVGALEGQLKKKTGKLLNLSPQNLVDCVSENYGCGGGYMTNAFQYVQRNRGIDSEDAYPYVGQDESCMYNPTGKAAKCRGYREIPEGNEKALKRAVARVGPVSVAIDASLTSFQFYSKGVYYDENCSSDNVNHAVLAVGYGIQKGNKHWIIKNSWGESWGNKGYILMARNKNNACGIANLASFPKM
# Experimental: Active enzyme was produced by expressing cathepsin K in the form of a proenzyme in a cell culture from a baculovirus expression system using Sf21 insect cells, followed by incubating for 1 hour at 40° C.^1). Cathepsin K activity was measured based on decomposition of the fluorescent substrate Z-Gly-Pro-Arg-MCA (Peptide Institute, Inc.) in compliance with the method of Aibe, et al.^2). Namely, the decomposition of […] Z-Gly-Pro-Arg-MCA by cathepsin K was measured in 100 mM sodium/potassium phosphate, 1 mM EDTA and 8 mM cysteine at pH 6.0. The reaction was carried out for 30 minutes at 37° C., and stopped by the addition of 2×10^−5 M Calpeptin. After stopping the reaction, fluorescent intensity was measured at an excitation wavelength of 355 nm and measurement wavelength of 460 nm. Inhibition of cathepsin K by the compounds was examined using the reaction system described above.
# Human cathepsin B = molecular target: T2, Human cathepsin B (Homo sapiens, UniProt P07858); assay: Measurement of cathepsin B inhibitory activity (fluorescent substrate Z-Arg-Arg-MCA); settings: for IC50: pH 6.0, 30° C., 30 minutes; for B/K (ratio of IC50 cathepsin B to IC50 cathepsin K): selectivity ratio B/K
# T2 construct: purchased Calbiochem Corp
# Experimental: (§1) Human cathepsin B (Calbiochem Corp.) was used for measurement. Activity was measured based on decomposition of the fluorescent substrate Z-Arg-Arg-MCA (Peptide Institute, Inc.) in compliance with the method of Barrett, et al.^3). Namely, the decomposition of 20 mM Z-Arg-Arg-MCA by cathepsin B was measured in 100 mM sodium/potassium phosphate, 1 mM EDTA, 8 mM cysteine and 0.005% Brij35 at pH 6.0. The reaction was carried out for 30 minutes at 30° C., and stopped by the addition of 2×10^−5 M Calpeptin. After stopping the reaction, fluorescent intensity was measured at an excitation wavelength of 355 nm and measurement wavelength of 460 nm. Inhibition of cathepsin B by the compounds was examined using the reaction system described above.
# Human cathepsin L = molecular target: T3, Human cathepsin L (Homo sapiens, UniProt P07711); assay: Measurement of cathepsin L inhibitory activity (fluorescent substrate Z-Phe-Arg-MCA); settings: for IC50: pH 5.5, 30° C., 30 minutes; for L/K (ratio of IC50 cathepsin L to IC50 cathepsin K): selectivity ratio L/K
# T3 construct: purchased Calbiochem Corp
# Experimental: as §1, with “cathepsin L” for “cathepsin B”, “substrate Z-Phe-Arg-MCA” for “substrate Z-Arg-Arg-MCA”, “[…] Z-Phe-Arg-MCA” for “mM Z-Arg-Arg-MCA”, “mM sodium acetate, 5” for “mM sodium/potassium phosphate, 1”, “EDTA, 4 mM urea,” for “EDTA,”, “pH 5.5.” for “pH 6.0.”
# T3 sequence (P07711 114-333): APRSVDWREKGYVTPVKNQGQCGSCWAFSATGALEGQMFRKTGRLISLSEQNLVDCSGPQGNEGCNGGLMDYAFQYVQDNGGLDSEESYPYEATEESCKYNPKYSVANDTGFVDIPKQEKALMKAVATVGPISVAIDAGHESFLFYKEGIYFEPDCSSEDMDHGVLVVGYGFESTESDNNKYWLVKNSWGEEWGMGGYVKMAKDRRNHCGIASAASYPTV
SMILES,IC50 (Cathepsin K),IC50 (Human cathepsin B),B/K (ratio of IC50 cathepsin B to IC50 cathepsin K) (Human cathepsin B),IC50 (Human cathepsin L),L/K (ratio of IC50 cathepsin L to IC50 cathepsin K) (Human cathepsin L)
"CC(C)C[C@H](NC(=O)c1ccco1)C(=O)N[C@H](C=O)C(C)C [Reference Example 196, N—[N-(2-Furanylcarbonyl)-L-leucyl]-L-valinal]",1.9 nM,57 nM,30,67 nM,35
"CC(C)C[C@H](NC(=O)OCc1ccccc1)C(=O)N[C@H](C=O)C(C)C [Reference Example 193, N—[N-[(Phenylmethoxy)carbonyl]-L-leucyl]-L-valinal] (Cbz-Leu-Val-aldehyde)",1.9 nM,110 nM,58,140 nM,74
"CCCC[C@@H](C=O)NC(=O)C1(NC(=O)OCc2ccccc2)CCCCC1 [Reference Example 190, N-[[1-[[(Phenylmethoxy)carbonyl]amino]cyclohexyl]carbonyl]-L-norleucinal] (Cbz-[Ac6c]-[Nle]-aldehyde)",4 nM,140 nM,35,200 nM,50
"CC(C)[C@@H](C=O)NC(=O)C1(NC(=O)c2ccco2)CCCCC1 [Reference Example 191, N-[[1-[(2-Furanylcarbonyl)amino]cyclohexyl]carbonyl]-L-valinal]",0.54 nM,47 nM,87,200 nM,370
"CCCC[C@@H](C=O)NC(=O)[C@H](CC(C)C)NC(=O)OCc1ccccc1 [Reference Example 194, N—[N-[(Phenylmethoxy)carbonyl]-L-leucyl]-L-norleucinal]",3.5 nM,40 nM,11,53 nM,15

# Continued, values first:
IC50 (Cathepsin K),IC50 (Human cathepsin B),B/K (ratio of IC50 cathepsin B to IC50 cathepsin K) (Human cathepsin B),IC50 (Human cathepsin L),L/K (ratio of IC50 cathepsin L to IC50 cathepsin K) (Human cathepsin L),SMILES
3 nM,13 nM,4.3,22 nM,7.3,"CCCC[C@@H](C=O)NC(=O)[C@H](CC(C)C)NC(=O)N1CCOCC1 [Reference Example 195, N—[N-(4-Morpholinylcarbonyl)-L-leucyl]-L-norleucinal]"
1.7 nM,390 nM,230,680 nM,400,"CC(C)[C@@H](C=O)NC(=O)C1(NC(=O)OCc2ccccc2)CCCCC1 [Reference Example 189, N-[[1-[[(Phenylmethoxy)carbonyl]amino]cyclohexyl]carbonyl]-L-valinal] (Cbz-[Ac6c]-Val-aldehyde)"
22 nM,260 nM,12,470 nM,21,"CCCC[C@@H](C=O)NC(=O)C1(NC(=O)N2CCOCC2)CCCCC1 [Reference Example 192, N-[[1-[(4-Morpholinylcarbonyl)amino]cyclohexyl]carbonyl]-L-norleucinal] ({Morpholide-CO}-[Ac6c]-[Nle]-aldehyde)"
